Measurements from patent US20160221974A1, “SODIUM CHANNEL MODULATORS FOR THE TREATMENT OF PAIN AND DIABETES” (CHROMOCELL CORPORATION, priority 2013, published 2016).
One block for each compound: values may come before it.

Legend:
hNaV1.7 = molecular target: T1, hNaV1.7 (Homo sapiens, UniProt Q15858); assay: FDSS Membrane Potential In-Vitro Assay; type: cell-based; details: stimulation with veratridine and scorpion venom, read-out: NaV1.7 IC50
T1 construct: expressed in transfected cells

NaV1.7 = molecular target: T2, NaV1.7 (Homo sapiens, UniProt Q15858); assay: Patchliner Electrophysiological In-Vitro Assay (NaV1.7); type: cell-based; details: Patchliner patch clamp, HEK293, holding at V1/2
T2 construct: expressed in transfected cells
Description: In vitro assays were performed in recombinant cell line that stably express a heterotrimeric protein of interest from an introduced nucleic acid encoding the alpha subunit (hNav1.7, SCN9A), the beta subunit (SCNB1) and the beta subunit (SCNB2). The cell line was engineered using Human Embryonic Kidney 293 cells as host background. Additional cell lines stably expressing recombinant Nav1.7 or Nav1.5 alpha subunit alone or in combination with various beta subunits can also be used in in-vitro assays.
(§1) The recording of sodium current from stable HEK293 cell lines expressing NaV1.7 or NaV1.5 was done on a Patchliner® instrument, Nanion Technologies. The Patchliner® is a fully automated bench-top patch clamp platform and can record simultaneously from up to eight single cells with GΩ seals.
(§2) For patch-clamp experiments, cells were grown under standard culturing conditions in Dulbecco's Modified Eagles medium supplemented with 10% fetal bovine serum, glutamine and HEPES. Cells were harvested and kept in suspension for up to 4 hours with no significant change in quality or ability to patch. Whole cell patch clamp recordings were conducted according to Nanion's standard procedure for the Patchliner®. Experiments were conducted at room temperature.
(§3) Voltage protocols were designed to establish: 1) peak current amplitude (Imax), 2) test potential (Vmax) and 3) half-inactivation potential (V1/2) for each of the eight individual cells. To determine V1/2, a standard steady-state inactivation protocol was executed using a series of fifteen 500 ms depolarizing pre-pulses in 10 mV increments (starting at −130 mV) and immediately followed by a 10 ms test pulse to Vmax. To estimate test compound affinity to the inactivated state of sodium channel (Ki), the holding potential for each cell was set automatically to the V1/2 calculated from a steady-state inactivation data. The current was activated with the following voltage protocol: holding at V1/2 for 2-5 seconds, return to the −120 mV for 5-10 ms to relieve fast inactivation, stepping to test potential (Vmax) for 10-20 ms. This voltage protocol was repeated every 10 seconds to establish the baseline with 2-3 buffer additions followed by the test compound addition. The dose-dependent inhibition was analyzed using Nanion's Data Analysis Package.

CYP3A4 = molecular target: T3, CYP3A4 (Homo sapiens, UniProt P08684); assay: In-Vitro Cytochrome P450 (CYP450) Inhibition Assay (Vivid CYP450); type: in vitro ADME; details: CYP3A4 enzyme complex (Vivid CYP450, Invitrogen), 6 μM test concentration
T3 construct: purchased Invitrogen
Description: We evaluated interaction of drug candidates with cytochrome P450 enzymes which are a major determinant of drug clearance via oxidative metabolism using a high throughput compatible, fluorescence based CYP450 screening assay (Vivid® CYP450, Invitrogen) according to manufacturer's directions.
In brief, test compounds at four different concentrations (μM—6.0, 2.0, 0.7, 0.2), a positive control (Ketoconazole) and a solvent control were incubated at room temperature in unique wells of a 96-well microtiter plate with CYP3A4 enzyme complex for 20 minutes. A pre-read fluorescence (Ex−485 nm/Em−530 nm) was measured at the start of the incubation using a Tecan Safire^2 microplate reader-monochromator to determine background fluorescence. At the end of the incubation period, enzyme substrate and co-enzyme were added and the reaction was kinetically monitored for 1 hour by measuring fluorescence every minute. Effect of test compounds on inhibition of CYP3A4 metabolism of provided substrate was determined by calculating the ratio of the effective reaction rate in presence of test compound to that in the absence of inhibitor.

[1] = system: Formalin Test (pain behaviors); assay: Formalin Test (pain behaviors); type: in vivo, rat; details: relative to vehicle control
[2] = system: Partial Sciatic Nerve Ligation (PSNL) model; assay: Partial Sciatic Nerve Ligation (PSNL) model, behavioral tests; type: in vivo, male Sprague-Dawley rats
Text: 250-350 g male Sprague-Dawley rats from appropriate animal resources were anesthetized with 2.5% isoflurane. A hind leg was shaved, and the skin was sterilized with 0.5% iodine and 75% alcohol. All surgical instruments were sterilized before surgery and between animals. An incision (1 cm) was made at the middle of the thigh in parallel with the muscle and sciatic nerve distribution. The muscle was exposed and dissected at the joint of two muscles (biceps femoris) indicated by the light colored (white) fascia line. The sciatic nerve was just beneath the muscle and was hooked out using an 18-20 G feeding needle (90 degree curved); the sciatic nerve was flat on the feeding needle and approximately one-half the diameter of the nerve is tightly ligated with 7-0 silk suture. A response of the injured leg twitch indicates the success of ligation. After checking hemostasis, bupivicaine 0.1-0.2 ml (0.125%) was given at the incision area, the muscle and the adjacent fascia are closed with 5-0 absorbable sutures. The skin was sutured with absorbable suture and tissue glue. The control group using sham surgery animals (about 8-10 animals) underwent the same surgical procedure but with no nerve ligation. Animals were returned to their home cage after recovery from anesthesia.
The analgesic effect of the test compound was expressed as a percent recovery (% Recovery) relative to the sham control group baseline and calculated according to the formula:
% Recovery=100%−{[(sham mean−test compound mean)/(sham mean−vehicle mean)]×100%}
wherein “sham mean” refers to average score in the sham-operated group; “test compound mean” refers to average score in the PSNL-group (animals with partial sciatic nerve ligation) or diabetic group (animals treated with STZ) treated with a test compound; “vehicle mean” refers to average score in the PSNL-group or diabetic group treated with vehicle only. The above formula was used to obtain data for the following in vivo behavioral tests.
The following behavioral tests were conducted (i.e., plantar test, paw pressure test, and von Frey test) started on day 3 and thereafter once weekly following surgery or use of a diabetic inducer. […]
Rats were placed on the glass surface of a thermal testing apparatus (Model 336, IITC/Life Science Instruments, Woodland Hills, Calif.) and were allowed to acclimate for 10 min before testing on the glass surface at room temperature. […] The paw withdrawal latency was recorded by a digital timer. The thermal threshold was determined as the mean withdrawal latency from two to three consecutive trials of both hindpaws. […]
Animals were placed under clear plastic boxes above a wire mesh floor, which allowed full access to the paws. […] Mechanical paw withdrawal thresholds (PWTs) were measured with the up-down testing paradigm. […]

NaV1.5 = molecular target: T4, NaV1.5 (Homo sapiens, UniProt Q14524); assay: Patchliner Electrophysiological In-Vitro Assay (NaV1.5); type: cell-based; details: Patchliner patch clamp, HEK293
T4 construct: expressed in transfected cells
Description: as §1, §2, §3

[3] = 150 μL of 1 or 2% w/v solution, topical route

T4 sequence (Q14524 whole entry): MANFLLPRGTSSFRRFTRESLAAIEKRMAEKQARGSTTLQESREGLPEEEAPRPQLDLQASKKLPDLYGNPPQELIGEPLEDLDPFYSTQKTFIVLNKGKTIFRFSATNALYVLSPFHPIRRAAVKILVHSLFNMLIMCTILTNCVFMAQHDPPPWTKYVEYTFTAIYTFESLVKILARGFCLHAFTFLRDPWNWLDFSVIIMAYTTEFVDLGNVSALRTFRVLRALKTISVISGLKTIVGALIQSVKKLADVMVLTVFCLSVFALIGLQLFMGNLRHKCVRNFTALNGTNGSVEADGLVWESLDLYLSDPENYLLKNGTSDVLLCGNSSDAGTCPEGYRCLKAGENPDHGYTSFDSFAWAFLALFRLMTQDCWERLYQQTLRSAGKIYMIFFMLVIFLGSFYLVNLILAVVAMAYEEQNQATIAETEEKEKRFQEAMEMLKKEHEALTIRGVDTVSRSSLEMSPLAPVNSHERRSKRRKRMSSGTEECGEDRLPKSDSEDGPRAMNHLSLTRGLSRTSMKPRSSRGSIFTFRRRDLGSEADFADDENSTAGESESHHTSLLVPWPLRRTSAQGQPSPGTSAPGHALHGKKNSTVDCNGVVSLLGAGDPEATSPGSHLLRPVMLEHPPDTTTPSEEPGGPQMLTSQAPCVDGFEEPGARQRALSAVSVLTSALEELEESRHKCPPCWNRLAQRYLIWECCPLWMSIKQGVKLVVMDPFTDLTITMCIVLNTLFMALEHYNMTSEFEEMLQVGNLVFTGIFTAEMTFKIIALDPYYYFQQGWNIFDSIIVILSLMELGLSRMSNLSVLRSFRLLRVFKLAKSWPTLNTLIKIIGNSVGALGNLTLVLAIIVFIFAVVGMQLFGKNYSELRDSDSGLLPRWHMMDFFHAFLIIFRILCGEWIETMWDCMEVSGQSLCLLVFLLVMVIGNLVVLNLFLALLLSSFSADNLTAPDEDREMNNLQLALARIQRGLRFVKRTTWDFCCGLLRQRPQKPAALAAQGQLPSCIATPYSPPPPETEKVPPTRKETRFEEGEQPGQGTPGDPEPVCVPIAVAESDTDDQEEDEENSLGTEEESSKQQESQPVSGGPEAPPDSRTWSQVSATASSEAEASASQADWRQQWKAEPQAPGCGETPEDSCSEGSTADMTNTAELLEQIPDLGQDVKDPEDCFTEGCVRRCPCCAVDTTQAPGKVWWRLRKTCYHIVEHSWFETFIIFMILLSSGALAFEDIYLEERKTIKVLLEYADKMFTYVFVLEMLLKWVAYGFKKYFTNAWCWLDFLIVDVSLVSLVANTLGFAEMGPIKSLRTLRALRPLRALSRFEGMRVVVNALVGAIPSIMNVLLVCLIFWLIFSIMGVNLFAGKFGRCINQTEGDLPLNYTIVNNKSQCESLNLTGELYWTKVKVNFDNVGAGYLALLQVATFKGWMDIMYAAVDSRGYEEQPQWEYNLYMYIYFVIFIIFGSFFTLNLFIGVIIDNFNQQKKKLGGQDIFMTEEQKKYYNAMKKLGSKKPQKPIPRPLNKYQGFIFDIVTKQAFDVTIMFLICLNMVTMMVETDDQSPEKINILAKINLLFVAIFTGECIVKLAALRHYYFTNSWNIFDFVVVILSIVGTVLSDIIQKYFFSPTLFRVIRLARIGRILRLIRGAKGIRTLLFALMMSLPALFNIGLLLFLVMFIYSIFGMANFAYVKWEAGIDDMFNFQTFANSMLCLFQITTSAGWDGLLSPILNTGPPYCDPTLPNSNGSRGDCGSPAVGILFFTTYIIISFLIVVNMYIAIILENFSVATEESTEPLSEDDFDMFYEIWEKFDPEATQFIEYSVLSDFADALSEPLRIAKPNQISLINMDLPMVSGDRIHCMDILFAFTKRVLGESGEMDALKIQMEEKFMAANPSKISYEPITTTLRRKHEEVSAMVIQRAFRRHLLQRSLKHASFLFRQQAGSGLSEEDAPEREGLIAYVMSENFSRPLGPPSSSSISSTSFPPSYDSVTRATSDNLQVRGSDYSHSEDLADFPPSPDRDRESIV
T3 sequence (P08684 2-503 limits assumed): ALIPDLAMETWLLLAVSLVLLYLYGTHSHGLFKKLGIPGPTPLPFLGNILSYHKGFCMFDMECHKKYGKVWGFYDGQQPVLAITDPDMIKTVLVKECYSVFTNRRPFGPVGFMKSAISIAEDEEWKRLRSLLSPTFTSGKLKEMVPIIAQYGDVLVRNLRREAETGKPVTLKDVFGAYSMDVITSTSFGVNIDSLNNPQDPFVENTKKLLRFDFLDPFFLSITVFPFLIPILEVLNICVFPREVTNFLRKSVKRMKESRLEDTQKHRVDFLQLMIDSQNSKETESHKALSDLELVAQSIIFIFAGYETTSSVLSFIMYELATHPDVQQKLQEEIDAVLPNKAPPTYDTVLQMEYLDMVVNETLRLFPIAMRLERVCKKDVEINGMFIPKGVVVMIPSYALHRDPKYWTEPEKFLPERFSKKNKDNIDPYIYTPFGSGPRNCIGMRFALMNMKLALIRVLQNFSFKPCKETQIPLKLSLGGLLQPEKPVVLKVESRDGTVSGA
T2 sequence (Q15858 whole entry): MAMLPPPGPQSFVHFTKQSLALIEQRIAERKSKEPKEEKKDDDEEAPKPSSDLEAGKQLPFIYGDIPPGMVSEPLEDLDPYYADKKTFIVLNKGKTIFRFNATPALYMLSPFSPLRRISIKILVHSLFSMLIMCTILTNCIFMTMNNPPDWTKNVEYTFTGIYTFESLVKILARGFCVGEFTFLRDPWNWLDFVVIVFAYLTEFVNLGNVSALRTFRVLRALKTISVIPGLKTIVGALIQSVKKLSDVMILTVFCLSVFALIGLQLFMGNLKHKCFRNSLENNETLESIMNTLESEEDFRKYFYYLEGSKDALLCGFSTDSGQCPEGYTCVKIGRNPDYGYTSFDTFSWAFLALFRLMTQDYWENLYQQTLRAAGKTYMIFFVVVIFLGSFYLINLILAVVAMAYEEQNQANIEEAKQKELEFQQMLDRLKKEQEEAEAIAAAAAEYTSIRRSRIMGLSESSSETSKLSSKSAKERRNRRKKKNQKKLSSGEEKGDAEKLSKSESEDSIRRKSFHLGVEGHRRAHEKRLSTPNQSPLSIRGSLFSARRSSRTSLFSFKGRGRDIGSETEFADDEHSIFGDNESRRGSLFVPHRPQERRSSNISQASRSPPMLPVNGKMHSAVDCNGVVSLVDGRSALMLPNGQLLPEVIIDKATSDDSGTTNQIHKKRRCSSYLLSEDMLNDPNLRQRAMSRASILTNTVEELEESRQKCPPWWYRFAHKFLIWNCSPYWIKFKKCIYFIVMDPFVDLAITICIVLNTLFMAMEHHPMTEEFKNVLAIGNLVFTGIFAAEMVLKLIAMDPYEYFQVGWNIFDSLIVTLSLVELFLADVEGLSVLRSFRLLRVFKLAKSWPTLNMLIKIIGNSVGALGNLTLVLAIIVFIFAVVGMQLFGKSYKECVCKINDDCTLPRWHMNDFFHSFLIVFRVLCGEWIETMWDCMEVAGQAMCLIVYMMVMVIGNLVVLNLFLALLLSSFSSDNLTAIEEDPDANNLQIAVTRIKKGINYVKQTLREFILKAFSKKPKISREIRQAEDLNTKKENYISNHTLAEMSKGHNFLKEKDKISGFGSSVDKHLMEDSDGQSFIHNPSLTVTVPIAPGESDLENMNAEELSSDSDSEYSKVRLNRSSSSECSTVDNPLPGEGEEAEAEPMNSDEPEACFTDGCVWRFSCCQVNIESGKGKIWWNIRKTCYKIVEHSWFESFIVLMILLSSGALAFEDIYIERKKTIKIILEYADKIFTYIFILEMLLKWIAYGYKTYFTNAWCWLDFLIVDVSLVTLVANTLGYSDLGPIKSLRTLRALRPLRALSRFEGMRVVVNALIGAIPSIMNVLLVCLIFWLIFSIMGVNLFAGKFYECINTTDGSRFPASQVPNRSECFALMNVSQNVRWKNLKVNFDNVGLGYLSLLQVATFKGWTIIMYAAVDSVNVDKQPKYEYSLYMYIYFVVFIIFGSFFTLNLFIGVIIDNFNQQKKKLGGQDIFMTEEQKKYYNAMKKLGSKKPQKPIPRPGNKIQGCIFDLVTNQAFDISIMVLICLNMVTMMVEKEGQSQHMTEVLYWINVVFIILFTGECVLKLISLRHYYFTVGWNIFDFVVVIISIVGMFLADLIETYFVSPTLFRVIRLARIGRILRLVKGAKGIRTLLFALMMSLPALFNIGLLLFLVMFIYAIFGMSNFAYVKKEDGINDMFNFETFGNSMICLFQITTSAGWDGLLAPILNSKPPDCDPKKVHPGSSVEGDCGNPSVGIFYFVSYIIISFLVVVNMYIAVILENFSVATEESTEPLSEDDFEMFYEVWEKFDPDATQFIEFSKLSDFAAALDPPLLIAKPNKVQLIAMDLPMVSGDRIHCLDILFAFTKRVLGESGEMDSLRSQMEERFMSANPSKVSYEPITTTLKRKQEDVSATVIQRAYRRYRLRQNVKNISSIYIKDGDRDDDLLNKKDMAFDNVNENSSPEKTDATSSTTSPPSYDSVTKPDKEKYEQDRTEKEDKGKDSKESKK
T2 sequence (Q07699 19-218 partner): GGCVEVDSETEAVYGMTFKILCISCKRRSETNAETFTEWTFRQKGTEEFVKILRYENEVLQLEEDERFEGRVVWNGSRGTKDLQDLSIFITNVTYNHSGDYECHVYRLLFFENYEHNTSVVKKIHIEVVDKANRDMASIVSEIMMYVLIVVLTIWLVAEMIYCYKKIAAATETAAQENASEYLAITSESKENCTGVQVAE
T2 sequence (O60939 30-215 partner): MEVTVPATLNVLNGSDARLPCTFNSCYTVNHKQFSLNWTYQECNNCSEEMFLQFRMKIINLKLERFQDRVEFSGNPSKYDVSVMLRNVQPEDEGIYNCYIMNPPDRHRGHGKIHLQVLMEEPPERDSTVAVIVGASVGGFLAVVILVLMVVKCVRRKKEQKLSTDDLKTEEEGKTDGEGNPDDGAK
T1 sequence (Q15858 whole entry): as the sequence (Q15858 whole entry) above
T1 sequence (Q07699 19-218 partner): as the sequence (Q07699 19-218 partner) above
T1 sequence (O60939 30-215 partner): as the sequence (O60939 30-215 partner) above

Structure (SMILES): O=C(O)CCNC(=O)c1cc(-c2cc(Cl)ccc2Oc2cc(F)c(S(=O)(=O)Nc3ncns3)cc2Cl)ccn1 [Compound 1, 3-(4-(2-(4-(N-(1,2,4-thiadiazol-5-yl)sulfamoyl)-2-chloro-5-fluorophenoxy)-5-chlorophenyl)picolinamido)propanoic acid]
IC50 (hNaV1.7): < 130 nM | IC50 (NaV1.7): < 100 nM | inhibition at 1 hour, 6 µM (CYP3A4): 50 to 100% | reduction in pain response (formalin assay phase 2) ([1]; 75 mg/kg, oral route): 17% | reduction in pain response (formalin assay, phase 1) ([1]; 75 mg/kg, oral route): 14% | effect in the tactile allodynia test ([2]; 30 mg/kg intraperitoneal, measured 30-60 minutes post dose): no significant effect

Structure (SMILES): O=C(O)CCNCCCc1cc(Cl)ccc1Oc1cc(F)c(S(=O)(=O)Nc2ncns2)cc1Cl [Compound 12, 3-((3-(2-(4-(N-(1,2,4-thiadiazol-5-yl)sulfamoyl)-2-chloro-5-fluorophenoxy)-5-chlorophenyl)propyl)amino)propanoic acid]
IC50 (hNaV1.7): < 130 nM | IC50 (NaV1.7): < 100 nM | inhibition at 1 hour, 6 µM (CYP3A4): 50 to 100% | reduction in pain response (formalin assay phase 2) [1, 3]: 29-43% | reduction in pain response (formalin assay, phase 1) [1, 3]: 13-24%

IC50 (NaV1.7): < 100 nM
Structure (SMILES): CS(=O)(=O)CCNCCCc1cc(Cl)ccc1Oc1cc(F)c(S(=O)(=O)Nc2cscn2)cc1Cl [Compound 44, 5-chloro-4-(4-chloro-2-(3-((2-(methylsulfonyl)ethyl)amino)propyl)phenoxy)-2-fluoro-N-(thiazol-4-yl)benzenesulfonamide]
IC50 (NaV1.5): > 10000 nM

Structure (SMILES): O=S(=O)(Nc1cscn1)c1cc(Cl)c(Oc2ccccc2-c2cnn3c2NCCC3)cc1F [Compound 58, 5-chloro-2-fluoro-4-(2-(4,5,6,7-tetrahydropyrazolo[1,5-a]pyrimidin-3-yl)phenoxy)-N-(thiazol-4-yl)benzenesulfonamide]
IC50 (hNaV1.7): 1000 to 20000 nM | IC50 (NaV1.7): 1000 to 10000 nM | IC50 (NaV1.5): > 10000 nM

Structure (SMILES): C#CCN(CCCc1cc(Cl)ccc1Oc1cc(F)c(S(=O)(=O)Nc2nccs2)cc1Cl)CC(=O)O [Compound 54, 2-((3-(5-chloro-2-(2-chloro-5-fluoro-4-(N-(thiazol-2-yl)sulfamoyl)phenoxy)phenyl)propyl)(prop-2-yn-1-yl)amino)acetic acid]
effect in the tactile allodynia test ([2]; oral route, relative to vehicle control, measured 30 minutes post dose): no significant effect

Structure (SMILES): O=C(O)C1CCN(CCCc2cc(Cl)ccc2Oc2cc(F)c(S(=O)(=O)Nc3cscn3)cc2Cl)CC1 [Compound 14, 1-(3-(5-chloro-2-(2-chloro-5-fluoro-4-(N-(thiazol-4-yl)sulfamoyl)phenoxy)phenyl)propyl)piperidine-4-carboxylic acid]
IC50 (hNaV1.7): 1000 to 20000 nM | IC50 (NaV1.7): 100 to 1000 nM | inhibition at 1 hour, 6 µM (CYP3A4): 0 to 25%

Structure (SMILES): NC(CCNCCCc1cc(Cl)ccc1Oc1cc(F)c(S(=O)(=O)Nc2cscn2)cc1Cl)C(=O)O (stereo not shown) [Compound 17, 2-amino-4-((3-(5-chloro-2-(2-chloro-5-fluoro-4-(N-(thiazol-4-yl)sulfamoyl)phenoxy)phenyl)propyl)amino)butanoic acid]
IC50 (hNaV1.7): 1000 to 20000 nM | IC50 (NaV1.7): 100 to 1000 nM | inhibition at 1 hour, 6 µM (CYP3A4): 0 to 25%

Structure (SMILES): CC(NC(=O)c1cc(-c2cc(Cl)ccc2Oc2cc(F)c(S(=O)(=O)Nc3ncns3)cc2Cl)ccn1)C(=O)O (racemic) [Compound 5, 2-(4-(2-(4-(N-(1,2,4-thiadiazol-5-yl)sulfamoyl)-2-chloro-5-fluorophenoxy)-5-chlorophenyl)picolinamido)propanoic acid]
IC50 (hNaV1.7): 130 to 1000 nM | IC50 (NaV1.7): < 100 nM | inhibition at 1 hour, 6 µM (CYP3A4): 25 to 50%

Structure (SMILES): O=S(=O)(Nc1nccs1)c1cc(Cl)c(Oc2ccccc2-c2cnn3c2NCCC3)cc1F [Compound 56, 5-chloro-2-fluoro-4-(2-(4,5,6,7-tetrahydropyrazolo[1,5-a]pyrimidin-3-yl)phenoxy)-N-(thiazol-2-yl)benzenesulfonamide]
IC50 (hNaV1.7): 500 to 1000 nM | IC50 (NaV1.5): > 10000 nM

Structure (SMILES): C[C@H](NC(=O)c1cc(-c2cc(Cl)ccc2Oc2cc(F)c(S(=O)(=O)Nc3ncns3)cc2Cl)ccn1)C(=O)O [Compound 8, (S)-2-(4-(2-(4-(N-(1,2,4-thiadiazol-5-yl)sulfamoyl)-2-chloro-5-fluorophenoxy)-5-chlorophenyl)picolinamido)propanoic acid]
IC50 (hNaV1.7): 130 to 1000 nM | IC50 (NaV1.7): < 100 nM | inhibition at 1 hour, 6 µM (CYP3A4): 25 to 50%

Structure (SMILES): O=C(O)CNCCCc1cc(Cl)ccc1Oc1cc(F)c(S(=O)(=O)Nc2nccs2)cc1Cl [Compound 13, 2-((3-(5-chloro-2-(2-chloro-5-fluoro-4-(N-(thiazol-2-yl)sulfamoyl)phenoxy)phenyl)propyl)amino)acetic acid]
IC50 (hNaV1.7): < 130 nM | IC50 (NaV1.7): < 100 nM | inhibition at 1 hour, 6 µM (CYP3A4): 0 to 25%
